Here are results for 8 compounds from ChEMBL document CHEMBL5137043, “trans, trans-2-C-Aryl-3,4-dihydroxypyrrolidines as potent and selective β-glucosidase inhibitors: Pharmacological chaperones for Gaucher disease” (Eur J Med Chem, 2022).

For orientation: IC50 means the point on the concentration scale where inhibition reaches its midpoint.

The assay addresses T1, Lysosomal acid glucosylceramidase (Homo sapiens, UniProt P04062).
T1 sequence (P04062 whole entry): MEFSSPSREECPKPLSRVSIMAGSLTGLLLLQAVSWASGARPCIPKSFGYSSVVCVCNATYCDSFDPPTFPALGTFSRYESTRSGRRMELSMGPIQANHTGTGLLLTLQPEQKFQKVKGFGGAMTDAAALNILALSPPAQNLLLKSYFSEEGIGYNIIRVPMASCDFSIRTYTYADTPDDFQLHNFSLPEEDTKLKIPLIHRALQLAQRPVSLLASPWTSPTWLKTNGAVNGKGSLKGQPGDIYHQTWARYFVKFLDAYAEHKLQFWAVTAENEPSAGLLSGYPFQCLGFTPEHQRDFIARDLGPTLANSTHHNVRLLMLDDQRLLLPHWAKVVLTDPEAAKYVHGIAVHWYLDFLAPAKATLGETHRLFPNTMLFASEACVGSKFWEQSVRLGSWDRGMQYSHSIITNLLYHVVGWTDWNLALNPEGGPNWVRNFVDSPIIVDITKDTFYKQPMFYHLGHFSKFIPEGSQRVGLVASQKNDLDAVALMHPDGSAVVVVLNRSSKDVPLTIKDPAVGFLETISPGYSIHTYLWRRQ
Briefly: Inhibition of human GCase assessed as reduction of 4-methylumbelliferone liberation using 4-methylumbelliferyl-beta-glucopyranoside as substrate preincubated with enzyme for 45 mins followed by substrate addition and measured after 30 mins by fluorescence spectrophotometry.
Take `CCCCCCCCCCC[C@H]1N[C@H](CO)[C@@H](O)[C@@H]1O`: the IC50 was 2.3 µM.

On to `CCCCCCCCCCCCC[C@H]1N[C@H](CO)[C@@H](O)[C@@H]1O`, for which the IC50 amounted to 0.77 µM.

In the case of `CCCCCCCCCC[C@H]1N[C@H](CO)[C@@H](O)[C@@H]1O`, the IC50 is 1.9 µM.

Regarding `CCCCCC[C@H]1N[C@H](CO)[C@@H](O)[C@@H]1O`, the IC50 amounted to 30 µM.

For the compound `CCCCCCCCC[C@H]1N[C@H](CO)[C@@H](O)[C@@H]1O`, the IC50 was found to be 3.3 µM.

Turning to `CCCCCCCC[C@H]1N[C@H](CO)[C@@H](O)[C@@H]1O`, the IC50 worked out at 6.2 µM.

In the case of `CCCCCCC[C@H]1N[C@H](CO)[C@@H](O)[C@@H]1O`, the IC50 worked out at 38 µM.

Take `CCCCC[C@H]1N[C@H](CO)[C@@H](O)[C@@H]1O`: the IC50 came out at 34 µM.
